Experimental data: PubChem BioAssay (NCI)
Where “and” joins values, the source holds several entries; their conditions need not be identical. Identical values can stand only once.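 Where inhibition never reached the appropriate level, the endpoint shown equals the highest concentration tested. Otherwise, values were interpolated linearly from a five-concentration, 48-hour dose response in 96-well plates. GI50 marks 50% less growth. Definition used: TGI = concentration required for complete inhibition of growth.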

How the values were obtained:
Assay in all cases: growth of human tumour cells (NCI), 48 h
786-0 renal = test system: 786-0 renal
HCT-15 colon = test system: HCT-15 colon
CAKI-1 renal = test system: CAKI-1 renal
SW-620 colon = test system: SW-620 colon
K-562 leukemia = test system: K-562 leukemia
HCT-116 colon = test system: HCT-116 colon
SR leukemia = test system: SR leukemia
NCI-H460 lung = test system: NCI-H460 lung
SK-MEL-2 melanoma = test system: SK-MEL-2 melanoma
MDA-MB-231 breast = test system: MDA-MB-231 breast

SMILES	TGI (786-0 renal)	TGI (HCT-15 colon)	TGI (CAKI-1 renal) [µM]	TGI (SW-620 colon)	TGI (K-562 leukemia)	TGI (HCT-116 colon)	TGI (SR leukemia) [µM]	TGI (NCI-H460 lung)	TGI (SK-MEL-2 melanoma)	TGI (MDA-MB-231 breast)	GI50 (786-0 renal)	GI50 (HCT-15 colon)	GI50 (CAKI-1 renal) [µM]	GI50 (SW-620 colon)	GI50 (MDA-MB-231 breast)	GI50 (K-562 leukemia)	GI50 (HCT-116 colon)	GI50 (NCI-H460 lung)	GI50 (SK-MEL-2 melanoma)
Cc1ccc(NCC2(/N=C/c3ccccc3)OC(CO)C(O)C2O)cc1 (centres undefined)	> 100 µM	> 100 µM	> 100	> 100 µM	> 100 µM	> 100 µM	> 100	> 100 µM	> 100 µM	–	–	–	–	–	–	–	–	–	–
CSC(=O)C[C@@]12O[C@@H]([C@@H](C)C3CCC4[C@@H]5C(O)CC6=CC(=O)C=C[C@]6(C)C5CC[C@@]43C)C[C@](C)(O1)C(C)(C)O2 (some centres undefined)	30.2 µM	32 µM	34.9	33.2 µM	19.9 µM	26.4 µM	34.8	35.8 µM	45 µM	–	–	–	–	–	–	–	–	–	–
CN(C)CCNc1ccc2ncn3c4ccc(O)cc4c(=O)c1c23	13.3 µM	10.2 µM	4.83	11.8 µM	29 µM	11.5 µM	–	6.5 µM	13 µM	5.44 µM	–	–	–	–	–	–	–	–	–
C[C@@H]1C[C@H](N)C[C@H](c2ccncc2NC(=O)c2ccc(F)c(-c3c(F)cccc3F)n2)C1	25.6 µM and > 10 µM	25.7 µM and > 10 µM	> 10	25.2 µM and > 10 µM	21.3 µM and > 10 µM	24.4 µM and > 10 µM	–	28.7 µM and > 10 µM	34.8 µM and > 10 µM	26.8 µM and > 10 µM	12.2 µM and > 10 µM	11.6 µM and > 10 µM	7.51	11.6 µM and 9.63 µM	12.8 µM and 4.01 µM	4.1 µM and 4.22 µM	12.1 µM and 6.94 µM	13.7 µM and > 10 µM	17.1 µM and > 10 µM
CCCCN(CC)C(=O)C(=O)Cc1nc2ccc(C(=O)c3ccccc3)cc2[nH]c1=O	> 100 µM	> 100 µM	> 100	> 100 µM	> 31.6 µM	> 100 µM	> 31.6	> 100 µM	–	–	–	–	–	–	–	–	–	–	–
CSc1cc([C@@H]2C[C@H]2c2ccc(Cl)cc2)on1	55.3 µM	36.9 µM	35.7	59.8 µM	> 100 µM	67.8 µM	–	43 µM	82.3 µM	21.7 µM	15 µM	10.8 µM	12.5	20.7 µM	5.51 µM	35.1 µM	17.4 µM	19 µM	25.2 µM
O=[N+]([O-])c1nccn1CC(O)c1ccccc1 (centres undefined)	> 100 µM	> 100 µM	> 100	> 100 µM	> 100 µM	–	–	> 100 µM	> 100 µM	–	–	–	–	–	–	–	–	–	–
CC(Oc1ccc2c(-c3ccc(Cl)cc3)cc(=O)oc2c1)C(=O)O (centres undefined)	> 100 µM	–	> 100	> 100 µM	> 100 µM	> 100 µM	> 100	> 100 µM	–	–	–	–	–	–	–	–	–	–	–
O=S1(=O)c2ccccc2N(O)C2=NCCN21	> 100 µM	–	> 100	> 100 µM	> 100 µM	> 100 µM	> 100	> 100 µM	> 100 µM	–	–	–	–	–	–	–	–	–	–
COC(=O)CCC(=O)Nc1ccc(Cl)cc1C	> 100 µM	> 100 µM	> 100	> 100 µM	> 100 µM	> 100 µM	> 100	> 100 µM	> 100 µM	–	–	–	–	–	–	–	–	–	–
CCCCCCCCCCCCSC(=S)c1c(C)[nH]n(-c2ccccc2)c1=O	> 50 µM	> 50 µM	> 50	> 50 µM	> 50 µM	–	–	–	–	–	–	–	–	–	–	–	–	–	–
CC(C)(C)C(=O)N1C(C(=O)O)Cc2ccccc2[C@@H]1Cc1ccccc1 (some centres undefined)	> 100 µM	> 100 µM	> 100	> 100 µM	> 100 µM	> 100 µM	–	> 100 µM	> 100 µM	–	–	–	–	–	–	–	–	–	–
COc1ccc(N2C(=O)C3CC(c4ccc(Br)cc4)c4c([nH]c5ccccc45)C3C2=O)cc1 (centres undefined)	4.45 µM	> 100 µM	29.6	18.5 µM	27.8 µM	16.1 µM	–	17.2 µM	> 100 µM	–	–	–	–	–	–	–	–	–	–
[N-]=[N+]=NCN1C(=O)C2C3C=CC(C2C1=O)C1C2C(=O)N(CN=[N+]=[N-])C(=O)C2C31 (centres undefined)	> 100 µM	> 100 µM	> 100	> 100 µM	> 100 µM	> 100 µM	–	> 100 µM	> 100 µM	–	–	–	–	–	–	–	–	–	–
c1ccc(SC(Sc2ccccc2)=C2CCC2)cc1	> 100 µM	> 100 µM	> 100	> 100 µM	> 100 µM	> 100 µM	> 100	> 100 µM	> 100 µM	–	–	–	–	–	–	–	–	–	–
CCOC(=O)C12CCCC1(O)N(NC(=O)OC)C(C)=C2C(=O)OC (centres undefined)	92.2 µM	> 100 µM	> 100	> 100 µM	> 100 µM	> 100 µM	–	> 100 µM	47.3 µM	–	–	–	–	–	–	–	–	–	–
C=C(C)[C@@H]1CC[C@]2(CO)CC[C@]3(C)[C@H](CC[C@@H]4[C@@]5(C)CCCNC(C)(C)[C@@H]5CC[C@]43C)[C@@H]12	3.16 µM	2.77 µM	2.89	3.41 µM	3.79 µM	2.63 µM	–	3.21 µM	–	3.21 µM	1.62 µM	1.39 µM	1.55	1.81 µM	1.77 µM	1.08 µM	1.29 µM	1.63 µM	–
O=C(CC1(O)C(=O)Nc2c(Cl)cc(Cl)cc21)c1ccccc1 (centres undefined)	> 100 µM	> 100 µM	> 100	> 100 µM	> 100 µM	> 100 µM	–	> 100 µM	> 100 µM	–	–	–	–	–	–	–	–	–	–
COc1ccc(C(=O)C2CCC(C(=O)O)C2)cc1 (centres undefined)	> 100 µM	> 100 µM	> 100	> 100 µM	> 100 µM	> 100 µM	> 100	> 100 µM	> 100 µM	–	–	–	–	–	–	–	–	–	–
Nc1nc(=O)n(C2CCC(CO)O2)cc1F (centres undefined)	> 100 µM	> 100 µM	> 100	> 100 µM	> 100 µM	–	–	> 100 µM	> 100 µM	–	–	–	–	–	–	–	–	–	–
Cc1ccc(OCC2CO2)c(Br)c1 (centres undefined)	62 µM	29.2 µM	> 100	33 µM	71.6 µM	73.3 µM	–	66 µM	–	58 µM	–	–	–	–	–	–	–	–	–
CC1=C([Te]c2ccccc2)C(=O)c2ccccc2C1=O	3.96 µM	1.56 µM	3.2	1.74 µM	3.4 µM	0.901 µM	–	0.391 µM	5.58 µM	0.573 µM	2.01 µM	0.346 µM	0.974	0.475 µM	0.227 µM	1.07 µM	0.284 µM	0.177 µM	2.37 µM
